Source: paper PMC4929710, “Specificity and mechanism of action of alpha-helical membrane-active peptides interacting with model and biological membranes by single-molecule force spectroscopy” (Scientific Reports, 2016)

What was measured:
[1] = test system: A. laidlawii cells; test: Single-molecule force spectroscopy (AFM); assay type: binding, Acholeplasma laidlawii; details: RMS ± SD; N-terminal Cys peptide on AFM tip via PEG linker
Text: (§1) Based on the above results, five selected peptides of V13L, A12L/A20L, V13K, V13E, and L6A/L17A, with different hydrophobicity and charges were used to examine the interaction probabilities and forces between peptides and membranes, both on the lipid model membranes and on the biological membranes by SMFS based on AFM, respectively. A cysteine residue was covalently introduced to the N-terminus of peptides and provided a free sulfhydryl group to modify the tips of the AFM. A PEG linker was used since each heterobifunctional PEG–NHS linker (approximately 20 nm) can only covalently connect with a single peptide molecule, which guarantees a single-molecule interaction between MAPs and biological membranes in real time[19]. If an AFM tip was functionalized with two or more peptides, where several peaks were recorded. In the reports, data with two peaks were not collected and calculated. For one force–distance cycle, one peptide-functionalized AFM tip approached the model and biological membranes right on the top, and the subsequent tip was withdrawn from the cell membranes to retrace the process. […] In addition, blocking experiment was used to test the specificity of these force events. As the electrostatic attraction is one important reason for peptides approaching model membranes and biological membranes, the Tris-HCl buffer including plenty amino groups[20] was injected into the working chamber and inhibits the interactions between MAPs and model membranes/biological membranes. […] The unbinding forces of V13L against different model membranes and biological membranes with the loading rate of 1 × 10^5 pN s^−1 are shown in Fig. 3c,f–h,j–l.
The AFM tip was first washed with concentrated sulfuric acid and hydrogen peroxide (3:1, v:v). The tip was dried using ozone (O3) for 15 min and dried overnight in a dryer. The tip was then modified with APTES under an argon atmosphere and the peptide connected with a PEG–NHS linker. Finally, the AFM tip linked with the peptide was washed three times in PBS and kept at 4 °C. A 500-μL LUV suspension was deposited on Lys coated glass and the LUVs were absorbed on the surface for 1 h at 65 °C [9][29]. A. laidlawii was deposited on poly-L-lysine coated glass and absorbed for 1 h at 37 °C [30]. The 3T3-L1 and HeLa cells were cultured on glass slides in Dulbecco’s modified Eagle’s medium (DMEM). Before performing force spectroscopy experiments, the cells were washed with fresh DMEM three times to remove the cell metabolites. Isolation of chicken erythrocytes was carried out at room temperature. Then the erythrocytes were washed three times in 2 mL PBS buffer by centrifuge (1,000 rpm) and resuspended in PBS buffer. 200 μL erythrocyte suspension were deposited onto poly-L-lysine coated glass for 20 min[10]. […]

[2] = test system: PC/SM/PE/PS/Chol (4.35:4.35:1:0.3:1 w/w) LUVs; test: Single-molecule force spectroscopy (AFM); assay type: binding; details: RMS ± SD; N-terminal Cys peptide on AFM tip via PEG linker; cancer cell model membrane
Text: as §1
(§2) In accordance with previously described methods, LUVs were prepared with PC/PG (7:3 w/w), PC/Chol (8:1 w/w), and PC/SM/PE/PS/Chol (4.35:4.35:1:0.3:1 w/w) to mimic prokaryotic cell, […], membranes, respectively. Lipids using the freeze-thaw method as described previously, followed by extrusion through […] double-stacked nuclepore filters using an Mini-Extruder (Avanti Polar Lipids, Inc.)[11][27].
(§3) The AFM tip was first washed with concentrated sulfuric acid and hydrogen peroxide (3:1, v:v). The tip was dried using ozone (O3) for 15 min and dried overnight in a dryer. The tip was then modified with APTES under an argon atmosphere and the peptide connected with a PEG–NHS linker. Finally, the AFM tip linked with the peptide was washed three times in PBS and kept at 4 °C. A 500-μL LUV suspension was deposited on Lys coated glass and the LUVs were absorbed on the surface for 1 h at 65 °C [9][29]. A. laidlawii was deposited on poly-L-lysine coated glass and absorbed for 1 h at 37 °C [30]. The 3T3-L1 and HeLa cells were cultured on glass slides in Dulbecco’s modified Eagle’s medium (DMEM). Before performing force spectroscopy experiments, the cells were washed with fresh DMEM three times to remove the cell metabolites. Isolation of chicken erythrocytes was carried out at room temperature. Then the erythrocytes were washed three times in 2 mL PBS buffer by centrifuge (1,000 rpm) and resuspended in PBS buffer. 200 μL erythrocyte suspension were deposited onto poly-L-lysine coated glass for 20 min[10]. The force measurements of MAPs with LUVs mimicking membranes and living cells were performed using the AFM5500 (Agilent Technologies, Chandler, AZ, USA)[19].

[3] = test system: PC/PG (7:3 w/w) LUVs; test: Single-molecule force spectroscopy (AFM); assay type: binding; details: RMS ± SD; N-terminal Cys peptide on AFM tip via PEG linker; prokaryotic model membrane
Text: as §1, §2, §3

[4] = test system: PC/PG (7:3 w/w) LUVs; test: Tryptophan fluorescence with LUVs; assay type: binding; details: PC/PG (7:3 w/w) LUVs versus HEPES buffer, 25 °C
Text: In order to investigate the interaction between peptides and difference types of cell membranes, three different LUVs were used to mimic a prokaryotic cell membrane (PC/PG), a normal eukaryotic cell membrane (PC/Chol), and a cancer cell membrane (PC/SM/PE/PS/Chol). Tryptophan residue in the peptide sequence was used as a fluorescent probe to examine the interaction of peptides with model membranes. […] For example, in the PC/PG (7:3 w/w) anionic prokaryotic mimicking model membrane, peptides V13L and A12L/A20L had the strongest hydrophobicity with blue shift values of approximately 37 nm and 38 nm, respectively. Conversely, peptide V13E with a negative charge of glutamic acid residue, and peptide L6A/L17A with the lowest hydrophobicity had blue shift values of approximately 18 nm and 17 nm, respectively. […] In addition, within PC/SM/PE/PS/Chol (4.35:4.35:1:0.3:1 w/w) as a cancer-mimicking model membrane, the same results could be obtained in that peptide hydrophobicity correlates with anticancer activity and the blue shift values of peptides.
as §2
Three kinds of LUVs were prepared and cultured in HEPES buffer (pH 7.4, 10 mM HEPES, 150 mM NaCl) and the molar concentration was adjusted to 100 μM. A total of 14 μL of 100 μM MAPs was mixed with 686 μL of 100 μM liposomes at 25 °C for 10 min. A Shimadzu RF-5301PC, (excitation wavelength of […], emission wavelength of 300–450 nm) was used to measure the tryptophan fluorescence. Potassium iodide (KI) as a quencher was added to the previous reaction system for a final concentration of 0.02–0.08 M, respectively. The experimental data were plotted according to the Stern–Volmer equation F0/F = 1 + Ksv[Q], where F0 and F are the fluorescence intensity in the absence or presence of a quencher at concentration [Q], respectively, and Ksv is the Stern–Volmer quenching constant.

[5] = Circular dichroism (CD) analysis; assay type: physicochemical; details: for α-Helix (%) 50% TFE / α-Helix (%) Benign: relative to molar ellipticity of A12L/A20L in 50% TFE; for [θ]222 Benign / [θ]222 50% TFE: CD, 25 °C; for [θ]222 Benign: benign buffer pH 7.0, 100 mM KCl, 50 mM KH2PO4/K2HPO4; for [θ]222 50% TFE: benign buffer:TFE 1:1 vol/vol; for α-Helix (%) Benign: benign buffer
Method: The secondary structures of the peptides were determined using a Jasco J-810 CD spectrometer (Jasco, Easton, MD) at 25 °C [12]. The benign buffer (pH 7.0, 100 mM KCl, 50 mM KH2PO4/K2HPO4) was used to simulate the hydrophilic environment and 50% 2,2,2-trifluoroethanol (TFE) (benign buffer: TFE = 1: 1, vol/vol) was used to simulate the hydrophobic environment. The mean residue molar ellipticities at 222 nm, [θ]222 (degree·cm^2·dmol^−1), were used to calculate the relative helical contents of MAPs[24].
CD spectroscopy illustrated the secondary structure of peptide analogs under benign environment and 50% TFE to mimic the hydrophobic conditions of cell membranes. CD results are shown in Supplementary Table S2 and Fig. S1. […] The helical content (%) of peptides in two groups relative to the molar ellipticity value of the peptide A12L/A20L in 50% TFE. In addition, except the peptide of V13E, the relative helicity of the peptides are in the same order of V13L>V13A>V13S>V13K and A12L/A20L>A20L>L6A>L6A/L17A in the benign and hydrophobic environments and also in the same order with the peptide hydrophobicity.

Compound	Unbinding force A. laidlawii [1]	Unbinding force PC/SM/PE/PS/Chol [2]	Unbinding force PC/PG [3]	PC/PG Blue shift [4]	α-Helix (%) 50% TFE [5]	[θ]222 Benign [5]	[θ]222 50% TFE [5]	α-Helix (%) Benign [5]
Ac-KWKSFAKTFKSAKKTVAHTALKAISS-NH2 [L6A/L17A]	41 ± 15 pN	130 ± 36 pN	132 ± 41 pN	~17 nm	65.58%	−3589.82 degree·cm^2·dmol^−1	−28421.80 degree·cm^2·dmol^−1	8.28%
Ac-KWKSFLKTFKSALKTVLHTALKAISS-NH2 [Peptide V13L]	27 ± 9 pN	124 ± 40 pN	127 ± 34 pN	–	90.73%	−10502.62 degree·cm^2·dmol^−1	−39315.30 degree·cm^2·dmol^−1	24.24%
Ac-KWKSFLKTFKSAEKTVLHTALKAISS-NH2 [Peptide V13E]	55 ± 12 pN	92 ± 34 pN	111 ± 37 pN	–	43.13%	−3876.86 degree·cm^2·dmol^−1	−18689.59 degree·cm^2·dmol^−1	8.95%
CC[C@H](C)[C@H](NC(=O)[C@H](C)NC(=O)[C@H](CCCCN)NC(=O)[C@H](CC(C)C)NC(=O)[C@H](C)NC(=O)[C@@H](NC(=O)[C@H](Cc1cnc[nH]1)NC(=O)[C@H](CC(C)C)NC(=O)[C@@H](NC(=O)[C@@H](NC(=O)[C@H](CCCCN)NC(=O)[C@H](CCCCN)NC(=O)[C@H](C)NC(=O)[C@H](CO)NC(=O)[C@H](CCCCN)NC(=O)[C@H](Cc1ccccc1)NC(=O)[C@@H](NC(=O)[C@H](CCCCN)NC(=O)[C@H](CC(C)C)NC(=O)[C@H](Cc1ccccc1)NC(=O)[C@H](CO)NC(=O)[C@H](CCCCN)NC(=O)[C@H](Cc1c[nH]c2ccccc12)NC(=O)[C@H](CCCCN)NC(C)=O)[C@@H](C)O)[C@@H](C)O)C(C)C)[C@@H](C)O)C(=O)N[C@@H](CO)C(=O)N[C@@H](CO)C(N)=O [Peptide V13K]	51 ± 18 pN	128 ± 51 pN	135 ± 36 pN	28 nm	69.85%	−4236.54 degree·cm^2·dmol^−1	−30268.40 degree·cm^2·dmol^−1	9.77%
